Tests used:
Test in all cases: NCI-60 SRB screen
Format in all cases: cell-based
HCT-116 = details: Homo sapiens; HCT-116, 10^–5 Molar; read-out: Percent growth inhibition
Method in brief: (§1)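 Compounds were evaluated at one concentration (10^−5 M) against the cell lines over 48 h. Cell mass was measured by sulforhodamine B staining after trichloroacetic acid fixation, with growth expressed relative to time-zero and control cultures.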

melanoma SK-MEL-5 = details: Homo sapiens; SK-MEL-5, 10^–5 Molar; read-out: Percent growth inhibition
Method in brief: (§2)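 After a 24 h pre-incubation, the cells received test compound at a single 10^−5 M dose and were incubated a further 48 h. Endpoint was SRB dye binding.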

HCC-2998 = details: Homo sapiens; HCC-2998, 10^–5 Molar; read-out: Percent growth inhibition
Method in brief: as §1

SN12C = details: Homo sapiens, 10^–5 Molar, read-out: Percent growth inhibition
Method in brief: as §2

NCI-H23 = details: Homo sapiens; NCI-H23, 10^–5 Molar; read-out: Percent growth inhibition
Method in brief: as §1

A498 = details: Homo sapiens; A498, 10^–5 Molar; read-out: Percent growth inhibition
Method in brief: as §2

MDA-MB-231/ATCC = details: Homo sapiens, 10^–5 Molar, read-out: Percent growth inhibition
Method in brief: as §2

CCRF-CEM = details: Homo sapiens, 10^–5 Molar, read-out: Percent growth inhibition
Method in brief: as §1

LOX IMVI = details: Homo sapiens, 10^–5 Molar, read-out: Percent growth inhibition
Method in brief: as §2

MALME-3M = details: Homo sapiens, 10^–5 Molar, read-out: Percent growth inhibition
Method in brief: as §2

NCI-H226 = details: Homo sapiens; NCI-H226, 10^–5 Molar; read-out: Percent growth inhibition
Method in brief: as §2

MDA-MB-435 = details: Homo sapiens; MDA-MB-435, 10^–5 Molar; read-out: Percent growth inhibition
Method in brief: as §2

BT-549 = details: Homo sapiens; BT-549, 10^–5 Molar; read-out: Percent growth inhibition
Method in brief: as §1

OVCAR-4 = details: Homo sapiens; OVCAR-4, 10^–5 Molar; read-out: Percent growth inhibition
Method in brief: as §1

NCI-H322M = details: Homo sapiens, 10^–5 Molar, read-out: Percent growth inhibition
Method in brief: as §1

KM12 = details: Homo sapiens; KM12, 10^–5 Molar; read-out: Percent growth inhibition
Method in brief: as §2

HOP-92 = details: Homo sapiens; HOP-92, 10^–5 Molar; read-out: Percent growth inhibition
Method in brief: as §1

OVCAR-5 = details: Homo sapiens; OVCAR-5, 10^–5 Molar; read-out: Percent growth inhibition
Method in brief: as §2

SF-539 = details: Homo sapiens; SF-539, 10^–5 Molar; read-out: Percent growth inhibition
Method in brief: as §1

NCI/ADR-RES = details: Homo sapiens, 10^–5 Molar, read-out: Percent growth inhibition
Method in brief: as §2

T-47D = details: Homo sapiens, T47D, 10^–5 Molar, read-out: Percent growth inhibition
Method in brief: as §2

U251 = details: Homo sapiens, U-251; U251, 10^–5 Molar; read-out: Percent growth inhibition
Method in brief: as §1

NCI-H522 = details: Homo sapiens; NCI-H522, 10^–5 Molar; read-out: Percent growth inhibition
Method in brief: as §1

SW-620 = details: Homo sapiens; SW-620, 10^–5 Molar; read-out: Percent growth inhibition
Method in brief: as §1

K-562 = details: Homo sapiens, K562; K-562, 10^–5 Molar; read-out: Percent growth inhibition
Method in brief: as §2

Row | SMILES | inhibition at 10 µM (HCT-116) | inhibition at 10 µM (melanoma SK-MEL-5) | inhibition at 10 µM (HCC-2998) | inhibition at 10 µM (SN12C) | inhibition at 10 µM (NCI-H23) | inhibition at 10 µM (A498) | inhibition at 10 µM (MDA-MB-231/ATCC) | inhibition at 10 µM (CCRF-CEM) | inhibition at 10 µM (LOX IMVI) | inhibition at 10 µM (MALME-3M) | inhibition at 10 µM (NCI-H226) | inhibition at 10 µM (MDA-MB-435) | inhibition at 10 µM (BT-549) | inhibition at 10 µM (OVCAR-4) | inhibition at 10 µM (NCI-H322M) | inhibition at 10 µM (KM12) | inhibition at 10 µM (HOP-92) | inhibition at 10 µM (OVCAR-5) | inhibition at 10 µM (SF-539) | inhibition at 10 µM (NCI/ADR-RES) | further results
1 | CCn1cc(C(=O)NN=Cc2ccccc2)c(=O)c2cc(F)c(N3CCNC(C)C3)c(F)c21 (stereo not drawn) [Compound 3a, N'-Benzylidene-1-ethyl-6,8-difluoro-7-(3-methylpiperazin-1-yl)-4-oxo-1,4-dihydroquinoline-3-carbohydrazide] | 42.5% | 88.1% | 183% | 38.3% | 31.5% | 0.4% | 170% | 152% | 187% | 178% | 12.6% | 188% | 22.2% | 29.3% | 47.5% | 189% | 44.2% | 33% | 187% | 44% | inhibition at 10 µM (T-47D): 36.4%; inhibition at 10 µM (U251): 192%; inhibition at 10 µM (NCI-H522): 175%; inhibition at 10 µM (SW-620): 181%; inhibition at 10 µM (K-562): 139%
2 | CCn1cc(C(=O)NN=Cc2cccc(F)c2)c(=O)c2cc(F)c(N3CCNC(C)C3)c(F)c21 (stereo not drawn) [Compound 3b, 1-Ethyl-6,8-difluoro-N′-(3-fluorobenzylidene)-7-(3-methylpiperazin-1-yl)-4-oxo-1,4-dihydroquinoline-3-carbohydrazide] | 28.8% | 47.4% | 181% | 104% | 23.8% | 0.84% | 150% | 147% | 191% | 167% | 2.9% | 175% | 17.1% | 76.2% | 16.6% | 127% | 48.8% | 9.76% | 105% | 21.6% | inhibition at 10 µM (T-47D): 27.7%; inhibition at 10 µM (U251): 174%; inhibition at 10 µM (NCI-H522): 130%; inhibition at 10 µM (SW-620): 185%; inhibition at 10 µM (K-562): 152%
3 | CCn1cc(C(=O)NN=Cc2cccnc2)c(=O)c2cc(F)c(N3CCNC(C)C3)c(F)c21 (stereo not drawn) [Compound 3d, 1-Ethyl-6,8-difluoro-7-(3-methylpiperazin-1-yl)-4-oxo-N'-(pyridin-3-ylmethylene)-1,4-dihydroquinoline-3-carbohydrazide] | 66.5% | 34.8% | 50.4% | 69.4% | 50.9% | 40.3% | 64.2% | 54.3% | 82% | 40% | 58.2% | 49% | 23.1% | 51.9% | 41.9% | 20.7% | 74.2% | 31.3% | 68.2% | 2.29% | inhibition at 10 µM (T-47D): 52.6%; inhibition at 10 µM (U251): 74.6%; inhibition at 10 µM (NCI-H522): 61.5%; inhibition at 10 µM (SW-620): 73.9%; inhibition at 10 µM (K-562): 71.9%

Reference: article PMC10940605, “Design, synthesis and in vitro anticancer activity of some new lomefloxacin derivatives” (Scientific Reports, 2024)
